Test results published in patent US7919488B2, “Therapeutic compounds” (Pfizer Inc., priority 2006, dated 2011).

Experiments:
Format in all cases: biochemical
CYP3A4 [1] = molecular target: T1, CYP3A4 (Homo sapiens, UniProt P08684); assay: IC50 against CYP3A4 by inhibition of testosterone metabolism in human liver microsomes; settings: 0.1 mg/mL human liver microsomes, 25 μM testosterone, 1 mM NADPH, 6-β-OH-testosterone production, eight minutes; read-out: IC50, μM (HLM, testosterone)
T1 construct: 0.1 mg/mL human liver microsomes; from tissue; host or cells: human liver microsomes
T1 sequence (P08684 whole entry): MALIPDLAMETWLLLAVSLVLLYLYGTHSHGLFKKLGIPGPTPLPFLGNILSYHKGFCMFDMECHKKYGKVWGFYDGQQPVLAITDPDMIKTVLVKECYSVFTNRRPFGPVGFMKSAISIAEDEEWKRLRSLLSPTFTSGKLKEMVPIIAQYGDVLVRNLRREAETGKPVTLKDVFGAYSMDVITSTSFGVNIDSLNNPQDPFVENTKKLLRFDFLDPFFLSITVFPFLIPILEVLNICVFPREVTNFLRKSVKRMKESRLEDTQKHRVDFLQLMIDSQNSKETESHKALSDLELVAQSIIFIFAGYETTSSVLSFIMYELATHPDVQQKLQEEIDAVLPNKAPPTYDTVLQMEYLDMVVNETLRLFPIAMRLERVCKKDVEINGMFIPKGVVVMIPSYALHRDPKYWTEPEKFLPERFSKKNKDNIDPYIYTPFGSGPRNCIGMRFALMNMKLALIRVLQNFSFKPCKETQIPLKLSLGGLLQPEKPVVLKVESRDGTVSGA
Procedure, shortened: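 Testosterone used as substrate, incubated for eight minutes. 6-β-OH-testosterone formation quantified by LC-MS/MS (MRM) as peak area ratio to internal standard against a metabolite standard curve. IC50 derived from inhibition of this metabolism.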

CYP3A4 [2] = molecular target: T1, CYP3A4; assay: IC50 against CYP3A4 by inhibition of midazolam metabolism in human liver microsomes; settings: 0.1 mg/mL human liver microsomes, 2 μM midazolam, 1 mM NADPH, 1-hydroxymidazolam production, eight minutes; read-out: IC50, μM (HLM, midazolam)
Procedure, shortened: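 Human liver microsomes (0.1 mg/mL) incubated 8 min with 2 μM midazolam and 1 mM NADPH in 100 mM potassium phosphate, pH 7.4. 1-Hydroxymidazolam quantified by LC-MS/MS (MRM) as peak area ratio to internal standard against a metabolite standard curve.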

[3] = molecular target: T2, recombinant CYP3A4-b5 enzyme (Baculosomes®) (Homo sapiens, UniProt P08684); assay: Kiapp against recombinant CYP3A4 enzyme (Baculosomes), BFC substrate; settings: recombinant CYP3A4-b5 (Invitrogen), 5 uM BFC, 200 uM NADPH, pre-incubation at least 30 minutes, pH 7.0, room temperature
T2 construct: purchased Invitrogen (Carlsbad, Calif.)
T2 sequence (P08684 whole entry): as above
Procedure, shortened: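 Recombinant CYP3A4-b5 Baculosomes were run in 100 mM sodium phosphate pH 7.0 with 5 mM TCEP and 2% DMF at room temperature, with ~30 min pre-incubation. The reaction was started with NADPH (200 uM) and BFC (5 uM), both final. Kiapp came from initial fluorescence velocities over the first 5 min across inhibitor concentrations.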

[4] = molecular target: T3, recombinant CYP3A4+b5 enzyme (Supersomes®) (Homo sapiens, UniProt P08684); assay: Kiapp against recombinant CYP3A4 enzyme (Supersomes), BFC substrate; settings: recombinant CYP3A4+b5 (BD Biosciences), 5 uM BFC, 200 uM NADPH, pre-incubation at least 30 minutes, pH 7.0, room temperature
T3 construct: purchased BD Biosciences (Woburn, Mass.)
T3 sequence (P08684 2-503 limits assumed): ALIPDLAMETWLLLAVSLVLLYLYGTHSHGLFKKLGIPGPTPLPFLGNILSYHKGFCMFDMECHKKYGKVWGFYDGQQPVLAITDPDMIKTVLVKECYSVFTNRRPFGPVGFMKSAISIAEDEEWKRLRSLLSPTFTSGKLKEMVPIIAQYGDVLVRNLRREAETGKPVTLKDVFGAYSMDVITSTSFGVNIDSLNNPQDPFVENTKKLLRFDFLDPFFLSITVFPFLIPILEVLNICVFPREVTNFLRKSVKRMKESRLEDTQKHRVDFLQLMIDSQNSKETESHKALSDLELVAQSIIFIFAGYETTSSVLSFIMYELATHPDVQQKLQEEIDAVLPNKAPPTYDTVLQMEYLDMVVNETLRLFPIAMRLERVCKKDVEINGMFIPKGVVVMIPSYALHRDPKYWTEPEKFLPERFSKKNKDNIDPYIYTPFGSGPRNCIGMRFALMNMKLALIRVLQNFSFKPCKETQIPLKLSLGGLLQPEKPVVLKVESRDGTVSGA
Procedure: 1. Determination of Compound Kiapp
A determination of the Kiapp of the compounds of the invention against recombinant CYP3A4 enzyme was performed as follows. The assay was performed in a 100 mM sodium phosphate buffer pH 7.0, 5 mM TCEP and containing 2% dimethylformamide (final concentration) upon addition of substrate and inhibitor. A typical reaction for the determination of Kiapp values was carried at room temperature in a solid black Costar u-bottom 96-well polypropylene plate. In each well, recombinant CYP3A4 enzyme (5.5 nM or 8 nM, final concentration depending on the commercial source of the enzyme) was pre-incubated in the presence of the inhibitor for at least 30 minutes in the assay buffer. When pre-incubation was completed (˜30 min), the reaction was initiated by adding NADPH (200 uM, final concentration), and 7-benzyloxy-4-(trifluoromethyl)-coumarin (BFC) (5 uM, final concentration). The oxidation of the coumarin substrate was recorded by a 96-well plate reader POLARstar (BMG LABTECH, Offenburg, Germany).
The initial reaction velocities were measured during the first 5 min of the reaction when the release of the fluorescent product is linear with time, in the absence and in the presence of various concentrations of inhibitors. For non-partial & partial inhibitors, the Kiapp values were determined by using the equation for tight-binding inhibitor developed by Morrison, J F (Morrison J F. Biochim Biophys Acta. 1969, 185: 269-86) and by Szedlaseck S E et al. (Szedlascek, S. E., Ostafe, V., Serban, M., and Vlad, M. O. Biochem. J. 1988, 254:311-312), respectively.
The fluorescent substrate BFC was purchased from Sigma (St Louis, Mo.). Two commercial sources of recombinant enzymes were used in this study: recombinant CYP3A4-b5 enzyme (Baculosomes®) was purchased from Invitrogen (Carlsbad, Calif.) and the recombinant CYP3A4+b5 enzyme (Supersomes®) was purchased from BD Biosciences (Woburn, Mass.).

| IC50 (CYP3A4 [1]) [µM] | IC50 (CYP3A4 [2]) [µM] | Ki [3] [µM] | Ki [4] [µM] | SMILES |
| --- | --- | --- | --- | --- |
| 0.051 | 0.0169 | 0.131 | 0.0168 | CC(=O)N1CCN(C(=O)Cn2nc(-c3ccncc3)cc2Cc2ccc(F)cc2)CC1 [Example 134, 1-acetyl-4-{[5-(4-fluorobenzyl)-3-pyridin-4-yl-1H-pyrazol-1-yl]acetyl}piperazine] |
| 0.024 | 0.0218 | 0.0237 | 0.0118 | CS(=O)(=O)C1CCN(C(=O)Cn2nc(-c3ccncc3)cc2Cc2ccc(F)cc2)CC1 [Example 6, 4-(5-(4-fluorobenzyl)-1-{2-[4-(methylsulfonyl)piperidin-1-yl]-2-oxoethyl}-1H-pyrazol-3-yl)pyridine] |
| 0.027 | 0.022 | 0.0666 | 0.00884 | CS(=O)(=O)NC1CN(C(=O)Cn2nc(-c3ccncc3)cc2Cc2ccc(F)cc2)C1 [Example 125, N-(1-{2-[5-(4-fluorobenzyl)-3-pyridin-4-yl-1H-pyrazol-1-yl]acetyl}azetidin-3-yl)methanesulfonamide] |
| 0.037 | 0.0139 | 0.0111 | 0.00283 | CS(=O)(=O)CCN1CCN(C(=O)Cn2nc(-c3ccncc3)cc2Cc2ccc(F)cc2)CC1 [Example 131, 1-{[5-(4-fluorobenzyl)-3-pyridin-4-yl-1H-pyrazol-1-yl]acetyl}-4-[2-(methylsulfonyl)ethyl] piperazine] |
| 0.04 | 0.023 | 0.0996 | 0.0716 | CS(=O)(=O)C1CCN(C(=O)Cn2nc(-c3ccncc3)cc2Cc2ccc(F)cc2)C1 (centres unmarked) [Example 132, 4-[5-(4-fluorobenzyl)-1-{2-[3-(methylsulfonyl)-pyrrolidin-1-yl]-2-oxoethyl}-1H-pyrazol-3-yl]pyridine] |

Continued, compound first:

| SMILES | IC50 (CYP3A4 [1]) [µM] | IC50 (CYP3A4 [2]) [µM] | Ki [3] [µM] | Ki [4] [µM] |
| --- | --- | --- | --- | --- |
| O=C(Cn1nc(-c2ccncc2)cc1Cc1ccc(F)cc1)N1CCC(N2CCOCC2)CC1 [Example 137, 4-(1-{[5-(4-fluorobenzyl)-3-pyridin-4-yl-1H-pyrazol-1-yl]acetyl}piperidin-4-yl)morpholine] | 0.031 | 0.0101 | 0.0129 | 0.0036 |
| O=C(Cn1nc(-c2ccncc2)cc1Cc1ccc(F)cc1)N1CCC(N2CCCS2(=O)=O)CC1 [Example 120, 4-[1-{2-[4-(1,1-dioxidoisothiazolidin-2-yl)piperidin-1-yl]-2-oxoethyl}-5-(4-fluorobenzyl)-1H-pyrazol-3-yl]pyridine] | 0.027 | 0.017 | 0.003 | 0.0068 |
| O=C(Cn1nc(-c2ccncc2)cc1Cc1ccc(F)cc1)N1CCC(N2CCCCC2=O)CC1 [Example 136, 1′-{[5-(4-fluorobenzyl)-3-pyridin-4-yl-1H-pyrazol-1-yl]acetyl}-1,4′-bipiperidin-2-one] | 0.023 | < 0.00833 | 0.0291 | 0.0119 |
| CC(C)NC(=O)NC1CCN(C(=O)Cn2nc(-c3ccncc3)cc2Cc2ccc(F)cc2)CC1 [Example 17, N-(1-{[5-(4-fluorobenzyl)-3-pyridin-4-yl-1H-pyrazol-1-yl]acetyl}piperidin-4-yl)-N′-isopropylurea] | 0.035 | 0.0115 | 0.0667 | 0.0231 |
| CC(=O)NC(C)(C)CNC(=O)Cn1nc(-c2ccncc2)cc1Cc1ccc(F)cc1 [Example 71, N-[2-(acetylamino)-2-methylpropyl]-2-[5-(4-fluorobenzyl)-3-pyridin-4-yl-1H-pyrazol-1-yl]acetamide] | 0.035 | 0.034 | 0.0599 | 0.0237 |
| O=C(Cn1nc(-c2ccncc2)cc1Cc1ccc(F)cc1)N1CCC(N2CCOC2=O)CC1 [Example 118, 3-(1-{[5-(4-fluorobenzyl)-3-pyridin-4-yl-1H-pyrazol-1-yl]acetyl}piperidin-4-yl)-1,3-oxazolidin-2-one] | 0.013 | 0.00837 | 0.0442 | 0.0065 |
| CNC(=O)NC1CN(C(=O)Cn2nc(-c3ccncc3)cc2Cc2ccc(F)cc2)C1 [Example 126, 1-(1-{[5-(4-fluorobenzyl)-3-pyridin-4-yl-1H-pyrazol-1-yl]acetyl}azetidin-3-yl)-3-methylurea] | 0.059 | 0.034 | 0.196 | 0.031 |
| CN(C)[C@H]1CCN(C(=O)Cn2nc(-c3ccncc3)cc2Cc2ccc(F)cc2)C1 [Example 73, (3S)-1-{[5-(4-fluorobenzyl)-3-pyridin-4-yl-1H-pyrazol-1-yl]acetyl}-N,N-dimethylpyrrolidin-3-amine] | 0.0435 | 0.018 | 0.211 | 0.0339 |
| CN(C(=O)Cn1nc(-c2ccncc2)cc1Cc1ccc(F)cc1)[C@H]1CC[C@@H](O)CC1 [Example 135, 2-[5-(4-fluorobenzyl)-3-pyridin-4-yl-1H-pyrazol-1-yl]-N-(cis-4-hydroxycyclohexyl)-N-methylacetamide] | 0.021 | 0.00867 | 0.108 | 0.0358 |
| CC(=O)NC1CN(C(=O)Cn2nc(-c3ccncc3)cc2Cc2ccc(F)cc2)C1 [Example 127, N-(1-{2-[5-(4-fluorobenzyl)-3-pyridin-4-yl-1H-pyrazol-1-yl]acetyl}azetidin-3-yl)acetamide] | 0.08 | 0.041 | 0.141 | 0.0191 |
| COC(=O)NC1CN(C(=O)Cn2nc(-c3ccncc3)cc2Cc2ccc(F)cc2)C1 [Example 124, methyl (1-{[5-(4-fluorobenzyl)-3-pyridin-4-yl-1H-pyrazol-1-yl]acetyl}azetidin-3-yl)carbamate] | 0.032 | 0.025 | 0.123 | 0.0147 |
| CC(C)(CN1CCOCC1)NC(=O)Cn1nc(-c2c[nH]nn2)cc1Cc1ccc(F)cc1 [Example 50, N-(1,1-dimethyl-2-morpholin-4-ylethyl)-2-[5-(4-fluorobenzyl)-3-(1H-1,2,3-triazol-4-yl)-1H-pyrazol-1-yl]acetamide] | 0.168 | 0.132 | 0.729 | 0.389 |
